Data: patent US10308659B2, “Pyridine derivatives” (Hoffmann-La Roche Inc., priority 2013, dated 2019)
Where two headings read alike, the source gives them in different places.

Key:
human CB2 receptors = human CB2 receptors (Homo sapiens (Human), UniProt P34972); experiment: cAMP assay, CHO cells expressing human CB2 receptors; type: cell-based
Experimental: (§1) CHO cells expressing human CB1 or CB2 receptors are seeded 17-24 hours prior to the experiment 50.000 cells per well in a black 96 well plate with flat clear bottom (Corning Costar #3904) in DMEM (Invitrogen No. 31331), 1×HT supplement, with 10% fetal calf serum and incubated at 5% CO2 and 37° C. in a humidified incubator. The growth medium was exchanged with Krebs Ringer Bicarbonate buffer with 1 mM IBMX and incubated at 30° C. for 30 min. Compounds were added to a final assay volume of 100 μl and incubated for 30 min at 30° C. […] The time-resolved energy transfer is measured by a TRF reader (Evotec Technologies GmbH), equipped with a ND:YAG laser as excitation source. The plate is measured twice with the excitation at 355 nm and at the emission with a delay of 100 ns and a gate of 100 ns, total exposure time 10 s at 730 (bandwidth30 nm) or 645 nm (bandwidth 75 nm), respectively. The FRET signal is calculated as follows: FRET=T730-Alexa730-P(T645-B645) with P=Ru730-B730/Ru645-B645, where T730 is the test well measured at 730 nM, T645 is the test well measured at 645 nm, B730 and B645 are the buffer controls at 730 nm and 645 nm, respectively. cAMP content is determined from the function of a standard curve spanning from 10 μM to 0.13 nM cAMP.
(§2) EC50 values were determined using Activity Base analysis (ID Business Solution, Limited).

human CB1 receptors = human CB1 receptors (Homo sapiens (Human), UniProt P21554); experiment: cAMP assay, CHO cells expressing human CB1 receptors; type: cell-based
Experimental: as §1, §2

[1] = functional cAMP assay, CHO cells expressing human CB2, read-out: EC50 CB2 human
[2] = functional cAMP assay, CHO cells expressing human CB1, read-out: EC50 CB1 human

human CB1 receptors, sequence (P21554 whole entry): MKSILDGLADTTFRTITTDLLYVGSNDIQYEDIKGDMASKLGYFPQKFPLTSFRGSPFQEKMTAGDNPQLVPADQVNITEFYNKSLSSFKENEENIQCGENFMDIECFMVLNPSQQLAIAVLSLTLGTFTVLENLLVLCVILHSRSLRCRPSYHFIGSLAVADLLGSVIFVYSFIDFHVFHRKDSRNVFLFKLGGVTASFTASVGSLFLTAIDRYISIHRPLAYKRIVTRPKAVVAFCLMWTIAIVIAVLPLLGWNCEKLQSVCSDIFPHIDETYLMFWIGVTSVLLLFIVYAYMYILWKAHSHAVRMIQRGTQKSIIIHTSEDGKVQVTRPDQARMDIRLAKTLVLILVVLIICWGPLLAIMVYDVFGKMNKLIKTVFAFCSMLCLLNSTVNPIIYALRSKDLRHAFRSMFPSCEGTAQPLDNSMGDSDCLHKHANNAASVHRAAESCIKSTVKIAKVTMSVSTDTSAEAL
human CB2 receptors, sequence (P34972 whole entry): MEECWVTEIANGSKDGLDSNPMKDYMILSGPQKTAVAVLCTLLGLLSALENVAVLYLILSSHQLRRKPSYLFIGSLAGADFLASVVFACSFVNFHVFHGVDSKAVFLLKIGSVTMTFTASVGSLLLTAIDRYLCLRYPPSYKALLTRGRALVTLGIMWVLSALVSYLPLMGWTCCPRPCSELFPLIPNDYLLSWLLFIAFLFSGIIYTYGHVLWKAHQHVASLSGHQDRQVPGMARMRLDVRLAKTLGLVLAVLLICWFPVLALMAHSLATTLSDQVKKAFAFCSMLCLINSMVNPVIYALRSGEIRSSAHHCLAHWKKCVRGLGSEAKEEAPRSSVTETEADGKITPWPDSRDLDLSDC

Row | SMILES | EC50 (human CB2 receptors; [1]) [µM] | EC50 (human CB1 receptors; [2]) [µM] | EC50 (human CB2 receptors) [µM] | EC50 (human CB1 receptors) [µM]
1 | COCc1nc(-c2cc(OCC3CC3)c(C3CC3)cn2)no1 [Example 12, 3-[5-cyclopropyl-4-(cyclopropylmethoxy)pyridin-2-yl]-5-(methoxymethyl)-1,2,4-oxadiazole] | 0.0466 | > 10 | – | –
2 | CC1(COc2cc(-c3noc(C(C)(C)C)n3)ncc2C2CC2)COC1 [Example 55, 5-tert-butyl-3-[5-cyclopropyl-4-[(3-methyloxetan-3-yl)methoxy]pyridin-2-yl]-1,2,4-oxadiazole] | 0.0077 | > 10 | – | –
3 | CC1(c2nc(-c3cc(OCC4CC4)c(C4CC4)cn3)no2)CC1 [Example 24, 3-[5-cyclopropyl-4-(cyclopropylmethoxy)pyridin-2-yl]-5-(1-methylcyclopropyl)-1,2,4-oxadiazole] | 0.0043 | 0.581 | – | –
4 | Cc1nc(COc2cc(-c3noc(C(C)(C)C)n3)ncc2C2CC2)c(C)o1 [Example 106, 5-tert-butyl-3-[5-cyclopropyl-4-[(2,5-dimethyl-1,3-oxazol-4-yl)methoxy]pyridin-2-yl]-1,2,4-oxadiazole] | 0.128 | > 10 | – | –
5 | NC1(c2nc(-c3cc(OCC4CC4)c(C4CC4)cn3)no2)COC1 [Example 60, 3-[3-[5-cyclopropyl-4-(cyclopropylmethoxy)pyridin-2-yl]-1,2,4-oxadiazol-5-yl]oxetan-3-amine] | 0.448 | > 10 | – | –
6 | Cc1nc(C2(C)COC(c3cc(OCC(F)(F)F)c(C4CC4)cn3)=N2)no1 (stereo not drawn) [Example 111, 3-[2-[5-cyclopropyl-4-(2,2,2-trifluoroethoxy)pyridin-2-yl]-4-methyl-5H-1,3-oxazol-4-yl]-5-methyl-1,2,4-oxadiazole] | 0.0576 | > 10 | – | –
7 | CC(C)(C)c1nc(-c2cc(OCC3CC3)c(N3CC(F)(F)C3)cn2)no1 [Example 32, 5-tert-butyl-3-[4-(cyclopropylmethoxy)-5-(3,3-difluoroazetidin-1-yl)pyridin-2-yl]-1,2,4-oxadiazole] | 0.0086 | > 10 | – | –
8 | CC(C)(C)c1cnc(-c2cc(OCC3CC3)c(C3CC3)cn2)o1 [Example 65, 5-tert-butyl-2-[5-cyclopropyl-4-(cyclopropylmethoxy)pyridin-2-yl]-1,3-oxazole] | 0.0017 | 0.17 | – | –
9 | CN1CCC(Oc2cc(-c3noc(C(C)(C)C)n3)ncc2C2CC2)C1 (stereo not drawn) [Example 59, 5-tert-butyl-3-[5-cyclopropyl-4-(1-methylpyrrolidin-3-yl)oxypyridin-2-yl]-1,2,4-oxadiazole] | 0.0481 | > 10 | – | –
10 | CC(C)(C)c1noc(-c2cc(OCC(F)F)c(C3CC3)cn2)n1 [Example 123, 3-tert-butyl-5-(5-cyclopropyl-4-(2,2-difluoroethoxy)pyridin-2-yl)-1,2,4-oxadiazole] | 0.002 | > 10 | – | –
11 | CC(C)(C)c1nc(-c2cc(OCC(F)(F)F)c(S(C)(=O)=O)cn2)no1 [Example 67, 5-tert-butyl-3-[5-methylsulfonyl-4-(2,2,2-trifluoroethoxy)pyridin-2-yl]-1,2,4-oxadiazole] | 0.434 | > 10 | – | –
12 | CC(C)(C)c1noc(-c2cc(OCC(F)(F)F)c(C3CC3)cn2)n1 [Example 40, 3-tert-butyl-5-[5-cyclopropyl-4-(2,2,2-trifluoroethoxy)pyridin-2-yl]-1,2,4-oxadiazole] | 0.0022 | > 10 | – | –
13 | Cc1noc(-c2cc(OCC(F)(F)F)c(N3CC(F)(F)C3)cn2)n1 [Example 16, 5-[5-(3,3-difluoroazetidin-1-yl)-4-(2,2,2-trifluoroethoxy)pyridin-2-yl]-3-methyl-1,2,4-oxadiazole] | 0.343 | > 10 | – | –
14 | FC(F)(F)COc1cc(-c2ncon2)ncc1C1CC1 [Example 39, 3-[5-cyclopropyl-4-(2,2,2-trifluoroethoxy)pyridin-2-yl]-1,2,4-oxadiazole] | 0.434 | > 10 | – | –
15 | c1c(-c2noc(C3CC3)n2)ncc(C2CC2)c1OCC1CC1 [Example 9, 5-cyclopropyl-3-[5-cyclopropyl-4-(cyclopropylmethoxy)pyridin-2-yl]-1,2,4-oxadiazole] | – | – | 0.0158 | > 10
16 | CCC1(CC)COC(c2cc(OCC(F)(F)F)c(C3CC3)cn2)=N1 [Example 27, 2-[5-cyclopropyl-4-(2,2,2-trifluoroethoxy)pyridin-2-yl]-4,4-diethyl-5H-1,3-oxazole] | 0.0035 | > 10 | – | –
17 | CC(C)(C)c1nc(-c2cc(OCC3(F)COC3)c(C3CC3)cn2)no1 [Example 105, 5-tert-butyl-3-[5-cyclopropyl-4-[(3-fluorooxetan-3-yl)methoxy]pyridin-2-yl]-1,2,4-oxadiazole] | 0.0291 | > 10 | – | –

Row | SMILES | EC50 (human CB2 receptors; [1]) [µM] | EC50 (human CB1 receptors; [2]) [µM] | EC50 (human CB2 receptors) [µM] | EC50 (human CB1 receptors) [µM]
18 | CC1(c2nc(-c3cc(OCC(F)(F)F)c(C4CC4)cn3)no2)COC1 [Example 38, 3-[5-cyclopropyl-4-(2,2,2-trifluoroethoxy)pyridin-2-yl]-5-(3-methyloxetan-3-yl)-1,2,4-oxadiazole] | 0.128 | > 10 | – | –
19 | NC(=O)C1(c2nc(-c3cc(OCC4CC4)c(C4CC4)cn3)no2)CC1 [Example 25, 1-[3-[5-cyclopropyl-4-(cyclopropylmethoxy)pyridin-2-yl]-1,2,4-oxadiazol-5-yl]cyclopropane-1-carboxamide] | 0.135 | > 10 | – | –
20 | CC(C)c1noc(-c2cc(OCC(F)(F)F)c(C3CC3)cn2)n1 [Example 42, 5-[5-cyclopropyl-4-(2,2,2-trifluoroethoxy)pyridin-2-yl]-3-propan-2-yl-1,2,4-oxadiazole] | 0.0023 | > 10 | – | –
21 | CC(C)(C)c1nc(-c2cc(OC3COC3)c(C3CC3)cn2)no1 [Example 54, 5-tert-butyl-3-[5-cyclopropyl-4-(oxetan-3-yloxy)pyridin-2-yl]-1,2,4-oxadiazole] | 0.0331 | > 10 | – | –
22 | CC(C)(C)c1nc(-c2cc(OCC3CCO3)c(C3CC3)cn2)no1 (stereo not drawn) [Example 58, 5-tert-butyl-3-[5-cyclopropyl-4-(oxetan-2-ylmethoxy)pyridin-2-yl]-1,2,4-oxadiazole] | 0.0156 | > 10 | – | –
23 | CC(C)(C)c1noc(-c2cc(OCC3CC3)c(C3CC3)cn2)n1 [Example 6, 3-tert-butyl-5-[5-cyclopropyl-4-(cyclopropylmethoxy)pyridin-2-yl]-1,2,4-oxadiazole] | 0.001 | 0.0092 | – | –
24 | CCN1CCC(Oc2cc(-c3noc(C(C)(C)C)n3)ncc2C2CC2)C1 (stereo not drawn) [Example 92, 5-tert-butyl-3-[5-cyclopropyl-4-(1-ethylpyrrolidin-3-yl)oxypyridin-2-yl]-1,2,4-oxadiazole] | 0.0751 | 0.768 | – | –
25 | CC(C)(C)c1nc(-c2cc(OCc3cccnc3)c(C3CC3)cn2)no1 [Example 119, 5-tert-butyl-3-[5-cyclopropyl-4-(pyridin-3-ylmethoxy)pyridin-2-yl]-1,2,4-oxadiazole] | 0.047 | > 10 | – | –
26 | CC(C)(C)c1nc(-c2cc(Oc3ccc(F)cc3)c(C3CC3)cn2)no1 [Example 61, 5-tert-butyl-3-[5-cyclopropyl-4-(4-fluorophenoxy)pyridin-2-yl]-1,2,4-oxadiazole] | 0.0062 | > 10 | – | –
27 | FC(F)(F)c1nc(-c2cc(OCC3CC3)c(C3CC3)cn2)no1 [Example 19, 3-[5-cyclopropyl-4-(cyclopropylmethoxy)pyridin-2-yl]-5-(trifluoromethyl)-1,2,4-oxadiazole] | 0.0137 | > 10 | – | –
28 | CCC1(CC)COC(c2cc(OCC(F)(F)F)c(N3CC(F)(F)C3)cn2)=N1 [Example 30, 2-[5-(3,3-difluoroazetidin-1-yl)-4-(2,2,2-trifluoroethoxy)pyridin-2-yl]-4,4-diethyl-5H-1,3-oxazole] | 0.0026 | > 10 | – | –
29 | CC(C)c1nc(-c2cc(OCC(F)(F)F)c(C3CC3)cn2)no1 [Example 36, 3-[5-cyclopropyl-4-(2,2,2-trifluoroethoxy)pyridin-2-yl]-5-propan-2-yl-1,2,4-oxadiazole] | 0.0209 | > 10 | – | –
30 | FC(F)(F)COc1cc(-c2noc(C3CC3)n2)ncc1Cl [Example 71, 3-[5-chloro-4-(2,2,2-trifluoroethoxy)pyridin-2-yl]-5-cyclopropyl-1,2,4-oxadiazole] | 0.28 | > 10 | – | –
31 | CCOCCOc1cc(-c2noc(C(C)(C)C)n2)ncc1C1CC1 [Example 83, 5-tert-butyl-3-[5-cyclopropyl-4-(2-ethoxyethoxy)pyridin-2-yl]-1,2,4-oxadiazole] | 0.0301 | > 10 | – | –
32 | CN1CCC[C@H]1COc1cc(-c2noc(C(C)(C)C)n2)ncc1C1CC1 [Example 57, 5-tert-butyl-3-[5-cyclopropyl-4-[[(2S)-1-methylpyrrolidin-2-yl]methoxy]pyridin-2-yl]-1,2,4-oxadiazole] | 0.0134 | > 10 | – | –
33 | CC(C)(C)c1nc(-c2cc(OCC3CC3)c(S(C)(=O)=O)cn2)no1 [Example 43, 5-tert-butyl-3-[4-(cyclopropylmethoxy)-5-methylsulfonylpyridin-2-yl]-1,2,4-oxadiazole] | 0.0409 | > 10 | – | –
